Where “and” joins values, the source holds several entries; their conditions need not be identical. Identical values can stand only once.

The target of assay [1] is T1, farnesyl protein transferase (Homo sapiens, UniProt P49354+P49356). In words: FPT inhibition, in vitro enzyme assay (H-ras). It counts as biochemical. The procedure: (§1) FPT IC50 (inhibition of farnesyl protein transferase, in vitro enzyme assay) and COS Cell IC50 (Cell-Based Assay) were determined following the assay procedures described in WO 95/10516, published Apr. 20, 1995. GGPT IC50 (inhibition of geranylgeranyl protein transferase, in vitro enzyme assay), Cell Mat Assay, and anti-tumor activity (in vivo anti-tumor studies) could be determined by the assay procedures described in WO 95/10516. The disclosure of WO 95/10516 is incorporated herein by reference thereto.
T1 sequence (P49356 whole entry, one chain of several): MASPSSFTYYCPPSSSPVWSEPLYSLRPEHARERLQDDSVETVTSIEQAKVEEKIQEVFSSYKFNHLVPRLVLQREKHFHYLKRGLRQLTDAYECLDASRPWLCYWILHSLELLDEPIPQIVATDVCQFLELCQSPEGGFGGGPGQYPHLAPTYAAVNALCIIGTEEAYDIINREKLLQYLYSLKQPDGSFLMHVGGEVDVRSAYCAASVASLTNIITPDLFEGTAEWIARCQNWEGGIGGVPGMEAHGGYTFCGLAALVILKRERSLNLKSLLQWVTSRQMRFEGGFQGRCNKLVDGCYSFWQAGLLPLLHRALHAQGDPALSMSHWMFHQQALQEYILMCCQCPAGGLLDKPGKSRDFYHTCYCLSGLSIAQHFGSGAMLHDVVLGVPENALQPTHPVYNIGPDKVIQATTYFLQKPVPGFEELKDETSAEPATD

Assay [2] concerns Human tumor cells. The experiment in a line: Soft Agar Assay (anchorage-independent growth of human tumor cells). To be noted: 10-16 days at 37° C., 5% CO2, MTT stain. In kind it is cell-based. The procedure: Soft Agar Assay: Anchorage-independent growth is a characteristic of tumorigenic cell lines. Human tumor cells are suspended in growth medium containing 0.3% agarose and an indicated concentration of a farnesyl transferase inhibitor. The solution is overlayed onto growth medium solidified with 0.6% agarose containing the same concentration of farnesyl transferase inhibitor as the top layer. After the top layer is solidified, plates are incubated for 10-16 days at 37° C. under 5% CO2 to allow colony outgrowth. […] Colonies can be counted and the IC50 's can be determined.

Assay [3] deals with COS Cell. The experiment in a line: COS Cell IC50 (Cell-Based Assay). To be noted: COS cells. As for the experimental part:
as §1

In assay [4] the target is T1, farnesyl protein transferase. In words: FPT inhibition, in vitro enzyme assay (K-ras). In kind it is biochemical. The procedure: as §1

As usually defined, the IC50 is the midpoint of a concentration-inhibition curve. Higher therefore signals lower potency. Regarding `CCS(=O)(=O)N1CCC(CC(=O)N2CCC([C@H]3c4ncc(Br)cc4CCc4cc(Cl)cc(Br)c43)CC2)CC1` [Example 6], the 50% inhibitory concentration (IC50) in assay [1] is 3.7 nM; in assay [2], 100 nM; in assay [3], 12 nM; in assay [4] it was 16.4 nM.

In the case of `CCCS(=O)(=O)N1CCC(CC(=O)N2CCC([C@H]3c4ncc(Br)cc4CCc4cc(Cl)cc(Br)c43)CC2)CC1` [Example 7], the IC50 in assay [1] was 5 nM; in assay [4], 14.2 nM.

For the molecule `CC(C)S(=O)(=O)N1CCC(CC(=O)N2CCC([C@H]3c4ncc(Br)cc4CCc4cc(Cl)cc(Br)c43)CC2)CC1` [Example 8], the figures for the IC50 in assay [1] and in assay [4] were 5.8 nM and 22.9 nM, respectively.

`O=C(CC1CCN(S(=O)(=O)Cc2ccccc2)CC1)N1CCC([C@H]2c3ncc(Br)cc3CCc3cc(Cl)cc(Br)c32)CC1` [Example 9]: the IC50 in assay [1] is 17.5 nM and 8 nM.

Take `CC1(C)[C@@H]2CC[C@@]1(CS(=O)(=O)N1CCC(CC(=O)N3CCC([C@H]4c5ncc(Br)cc5CCc5cc(Cl)cc(Br)c54)CC3)CC1)C(=O)C2` [Example 10]: the half-inhibitory concentration (IC50) amounted to 34.1 nM in assay [1] and 52.5 nM in assay [4].

Turning to `O=C(CC1CCN(S(=O)(=O)c2cccs2)CC1)N1CCC([C@H]2c3ncc(Br)cc3CCc3cc(Cl)cc(Br)c32)CC1` [Example 13], the results for the IC50 in assay [2] and in assay [3] were more than 250 nM and 50 nM, respectively.

In turn, `Cn1cnc(S(=O)(=O)N2CCC(CC(=O)N3CCC([C@H]4c5ncc(Br)cc5CCc5cc(Cl)cc(Br)c54)CC3)CC2)c1` [Example 14] showed an IC50 in assay [3] of 400 nM. This counts as sub-micromolar.

(Values after patent publication US5945429A, “Compounds useful for inhibition of farnesyl protein transferase” (Schering Corporation, priority 1997, dated 1999).)
